The NIST ThermoML archive (doi:10.1021/je050386z)
± gives the expanded uncertainty stated by the source.

Details: 101.33 kPa, Liquid
[1] = 283.15 K, Vibrating tube method
[2] = 298.15 K, Vibrating tube method
[3] = 323.15 K, Vibrating tube method
[4] = 348.15 K, Vibrating tube method

| Compound | mass density [1] | mass density [2] | mass density [3] | mass density [4] | also measured |
| --- | --- | --- | --- | --- | --- |
| CCC[n+]1cccc(C)c1.O=S(=O)([N-]S(=O)(=O)C(F)(F)F)C(F)(F)F | 1460 ± 3 kg/m3 | 1444 ± 3 kg/m3 | 1420 ± 3 kg/m3 | 1397 ± 3 kg/m3 |  |
| CCC[n+]1ccn(C)c1C.O=S(=O)([N-]S(=O)(=O)C(F)(F)F)C(F)(F)F |  |  |  |  | mass density (299.15 K, Pycnometric method): 1481 ± 3 kg/m3 |
| CCCCn1cc[n+](C)c1.N#C[S-] [1-butyl-3-methylimidazolium thiocyanate] |  |  |  |  | mass density (298.65 K, Pycnometric method): 1067 ± 3 kg/m3 |
| CCCCn1cc[n+](C)c1.O=S(=O)([O-])C(F)(F)C(F)OC(F)(F)F (centres undefined) | 1409 ± 4 kg/m3 | 1393 ± 4 kg/m3 | 1369 ± 4 kg/m3 | 1345 ± 4 kg/m3 |  |
| CCCC[n+]1ccn(C)c1.O=S(=O)([O-])C(F)(F)C(F)C(F)(F)F (centres undefined) | 1422 ± 4 kg/m3 | 1409 ± 4 kg/m3 | 1385 ± 4 kg/m3 | 1364 ± 4 kg/m3 |  |
| CCCC[n+]1cccc(C)c1.O=S(=O)([N-]S(=O)(=O)C(F)(F)F)C(F)(F)F | 1428 ± 3 kg/m3 | 1412 ± 3 kg/m3 | 1389 ± 3 kg/m3 | 1367 ± 3 kg/m3 |  |
| CCCCCCCn1cc[n+](C)c1.O=S(=O)([O-])C(F)(F)C(F)F |  |  |  |  | mass density (301.15 K, Pycnometric method): 1274 ± 4 kg/m3 |
| CCCCCCCCCCCCn1cc[n+](C)c1.O=S(=O)([O-])C(F)(F)C(F)F |  |  |  |  | mass density (301.35 K, Pycnometric method): 1136 ± 4 kg/m3 |
| CCn1cc[n+](C)c1.O=S(=O)([O-])C(F)(F)C(F)F |  |  |  |  | mass density (301.45 K, Pycnometric method): 1502 ± 5 kg/m3 |
| CCCCn1cc[n+](C)c1.O=S(=O)([O-])C(F)(F)C(F)OC(F)(F)C(F)(F)F (centres undefined) | 1439 ± 4 kg/m3 | 1423 ± 4 kg/m3 | 1397 ± 4 kg/m3 | 1372 ± 4 kg/m3 |  |
| CCCCn1cc[n+](C)c1.COS(=O)(=O)[O-] [1-butyl-3-methylimidazolium methyl sulfate] |  |  |  |  | mass density (298.15 K, Pycnometric method): 1214 ± 3 kg/m3 |
| CCn1cc[n+](C)c1.O=S(=O)([N-]S(=O)(=O)C(F)(F)F)C(F)(F)F | 1534 ± 5 kg/m3 | 1517 ± 5 kg/m3 | 1492 ± 4 kg/m3 | 1467 ± 4 kg/m3 |  |
| CCCn1cc[n+](C)c1C.O=S(=O)([C-](S(=O)(=O)C(F)(F)F)S(=O)(=O)C(F)(F)F)C(F)(F)F | 1612 ± 3 kg/m3 | 1597 ± 3 kg/m3 | 1582 ± 3 kg/m3 | 1567 ± 3 kg/m3 |  |
| CCCCn1cc[n+](C)c1.O=S(=O)([O-])C(F)(F)C(F)F |  |  |  |  | mass density (301.45 K, Pycnometric method): 1324 ± 4 kg/m3 |
| CC(=O)[O-].CCCCn1cc[n+](C)c1 [1-butyl-3-methylimidazolium acetate] |  |  |  |  | mass density (298.15 K, Pycnometric method): 1053 ± 3 kg/m3 |
| CCn1cc[n+](C)c1.O=S(=O)([N-]S(=O)(=O)C(F)(F)C(F)(F)F)C(F)(F)C(F)(F)F | 1608 ± 3 kg/m3 | 1590 ± 3 kg/m3 | 1562 ± 3 kg/m3 | 1534 ± 3 kg/m3 |  |
| CCCCn1cc[n+](C)c1.O=S(=O)([O-])C(F)(F)C(F)(F)OC(F)C(F)(F)F (centres undefined) | 1464 ± 4 kg/m3 | 1449 ± 4 kg/m3 | 1425 ± 4 kg/m3 | 1401 ± 4 kg/m3 |  |
